The results in this text go back to patent US20240124444A1 (Celgene Corporation, priority 2020, published 2024).

As usually defined, the EC50 is the concentration at which the effect is half-maximal.

The subject of the assay is C. parvum strain UGA1. As to the kind of experiment: C. parvum growth inhibition assay (Nluc luminescence in HCT-8 cells). It is filed as cell-based, Cryptosporidium parvum. The conditions noted are these: Cryptosporidium parvum; for EC50: HCT-8, 48 h, C. parvum growth inhibition in HCT-8 cells, 48 hours, 6 concentrations 10-0.04 μM; for inhibition at 1 µM / inhibition at 10 µM: HCT-8; for inhibition at 1 µM: single point inhibition at 1 uM, read-out: % inh @ 1 uM C. parvum; for inhibition at 10 µM: single point inhibition at 10 uM, read-out: % inh @ 10 uM C. parvum.

Molecules are shown by their SMILES.

`COC(=O)Nc1cc2[nH]c(C(F)(F)F)cc2cn1` [Example 107, methyl 2-(trifluoromethyl)-1H-pyrrolo[3,2-c]pyridin-6-ylcarbamate] registered an EC50 above 1 µM.

Consider `CN1CCC(c2cc3cnc(NC(=O)c4cnn(C)c4)cc3[nH]2)CC1` [Example 336, 1-methyl-N-(2-(1-methylpiperidin-4-yl)-1H-pyrrolo[3,2-c]pyridin-6-yl)-1H-pyrazole-4-carboxamide], for which the inhibition at 1 µM was in the range of 0 to 33% and the inhibition at 10 µM lay within 0 to 33%.

For `Cc1cc(-c2cc3cnc(NC(=O)C4CC4)cc3n2CCO)ncn1` [Example 55, N-(1-(2-hydroxyethyl)-2-(6-methylpyrimidin-4-yl)-1H-pyrrolo[3,2-c]pyridin-6-yl)cyclopropanecarboxamide], the EC50 is above 1 µM.

Regarding `Cc1cc(-c2cc3cnc(NC(=O)N4CCCC4)cc3[nH]2)ccn1` [Example 261, N-(2-(2-methylpyridin-4-yl)-1H-pyrrolo[3,2-c]pyridin-6-yl)pyrrolidine-1-carboxamide], the inhibition at 1 µM fell in the range of 0 to 33% and the inhibition at 10 µM lay in the range of 0 to 33%.

In the case of `CCc1nccc(-c2cc3cnc(NC4CCOCC4)cc3n2C)n1` [Example 387, 2-(2-ethylpyrimidin-4-yl)-1-methyl-N-(tetrahydro-2H-pyran-4-yl)-1H-pyrrolo[3,2-c]pyridin-6-amine], the EC50 is above 1 µM.

Turning to `CC(C)n1c(-c2ccnc(NCC(F)(F)F)n2)cc2cnc(NC(=O)c3cnn(C)c3)cc21` [Example 338, N-(1-isopropyl-2-(2-(2,2,2-trifluoroethylamino)pyrimidin-4-yl)-1H-pyrrolo[3,2-c]pyridin-6-yl)-1-methyl-1H-pyrazole-4-carboxamide], the inhibition at 1 µM lay in the range of 0 to 33% and the inhibition at 10 µM fell in the range of 0 to 33%.

For the molecule `O=C(Nc1cc2[nH]c(-c3ccc(F)nc3)cc2cn1)C1CC1` [Example 248, N-(2-(6-fluoropyridin-3-yl)-1H-pyrrolo[3,2-c]pyridin-6-yl)cyclopropanecarboxamide], the inhibition at 1 µM fell in the range of 0 to 33% and the inhibition at 10 µM is 0 to 33%.

With `Cn1c(-c2ccnc(NCC(F)(F)F)n2)cc2cnc(NC(C)(C)C)cc21` [Example 384, N-tert-butyl-1-methyl-2-(2-(2,2,2-trifluoroethylamino)pyrimidin-4-yl)-1H-pyrrolo[3,2-c]pyridin-6-amine], the EC50 is above 1 µM.

Consider `CC(C)COc1nccc(-c2cc3cnc(NC(=O)c4cnn(C)c4)cc3[nH]2)n1` [Example 311, N-(2-(2-isobutoxypyrimidin-4-yl)-1H-pyrrolo[3,2-c]pyridin-6-yl)-1-methyl-1H-pyrazole-4-carboxamide], for which the inhibition at 1 µM was in the range of 0 to 33% and the inhibition at 10 µM was 0 to 33%.

Consider `Cn1c(-c2cccnc2)cc2cnc(Nc3cnn(C4CCOCC4)c3)cc21` [Example 266, 1-methyl-2-(pyridin-3-yl)-N-(1-(tetrahydro-2H-pyran-4-yl)-1H-pyrazol-4-yl)-1H-pyrrolo[3,2-c]pyridin-6-amine], for which the inhibition at 1 µM was in the range of 0 to 33% and the inhibition at 10 µM lay within 0 to 33%.

For `COc1nccc(-c2cc3cnc(NC(=O)C4C5CCCCC54)cc3n2C)n1` (stereo not shown) [Example 211, N-(2-(2-methoxypyrimidin-4-yl)-1-methyl-1H-pyrrolo[3,2-c]pyridin-6-yl)bicyclo[4.1.0]heptane-7-carboxamide], the inhibition at 1 µM was in the range of 0 to 33% and the inhibition at 10 µM is 67 to 100%.

Turning to `CCn1c(-c2cc(C)ncn2)cc2cnc(NC(=O)C3CC3)cc21` [Example 122, N-(1-ethyl-2-(6-methylpyrimidin-4-yl)-1H-pyrrolo[3,2-c]pyridin-6-yl)cyclopropanecarboxamide], the EC50 is above 1 µM.
